Results as given in ChEMBL document CHEMBL1201862, “PubChem BioAssay data set” (2004).
Active and inactive are the calls of the source.

What was measured:
CAAX prenyl protease 1 = CAAX prenyl protease 1 (Saccharomyces cerevisiae S288c, UniProt P47154); experiment: Ste24 protease inhibitors, dose response, biochemical, S. cerevisiae, plate reader, cherry-pick (AID 488815)
CAAX prenyl protease 2 = molecular target: T1, CAAX prenyl protease 2 (Saccharomyces cerevisiae S288c, UniProt Q03530); type: biochemical
T1 sequence (Q03530 whole entry): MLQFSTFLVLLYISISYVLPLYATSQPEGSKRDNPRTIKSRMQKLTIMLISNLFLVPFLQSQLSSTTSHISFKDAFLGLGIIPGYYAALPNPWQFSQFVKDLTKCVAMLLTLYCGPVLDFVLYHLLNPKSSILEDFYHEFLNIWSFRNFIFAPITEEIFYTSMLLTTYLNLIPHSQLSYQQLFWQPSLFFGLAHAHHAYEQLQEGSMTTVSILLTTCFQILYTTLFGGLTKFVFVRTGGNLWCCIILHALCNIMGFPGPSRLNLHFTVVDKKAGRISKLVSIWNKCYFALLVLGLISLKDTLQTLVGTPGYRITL

[1] = molecular target: Mitogen-activated protein kinase 10 (Homo sapiens, UniProt P53779); experiment: Dose response biochemical screening assay for inhibitors of c-Jun N-Terminal Kinase 3 (JNK3). [Related pubchem assays: 746 ]
[2] = cytotoxicity in MIN6 insulinoma cells, dose response, cytotoxicity control, cell-based, mouse insulinoma (AID 2122); type: functional;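 further: confirmatory high-throughput counterscreen run to flag cytotoxic compounds; mouse MIN-6 beta cells carrying an insulin promoter eGFP reporter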
[3] = insulin promoter down-regulators in MIN6 cells, imaging, high-content screening, mouse beta cells (AID 1628); type: functional
[4] = growth suppression of PTEN-null colon cells, dose response, cell-based, HCT116 PTEN knockout (AID 1047); type: functional;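 further: HCT116 colon tumor cells with PTEN knocked out; cells exposed to compound for 60 hours before readout; potency for loss of cell viability measured by luminescence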
[5] = inhibitors of SNCA 5'UTR-driven reporter translation, confirmation, H4 neuroglioma cells, luminescence (AID 1988); type: functional, cell-based
[6] = inhibitors of firefly luciferase expression or activity, dose response, H4 neuroglioma cells, luminescence (AID 1990); type: functional, cell-based
[7] = growth suppression of beta-catenin-knockout colon cells, dose response, cell-based, HCT116, human colon tumor (AID 1045); type: functional;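 further: HCT116 colon tumor cells with beta catenin knocked out; cells exposed to compound for 60 hours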
[8] = Luminescence Cell-Based Dose Response HTS to Identify Inhibitors of 5'UTR Stem-Loop Driven Prion Protein mRNA Translation in H4 Neuroglioblastoma Cells. [Related pubchem assays: 1827 (Project Summary), 1813 (Primary HTS)]; type: functional

Mitogen-activated protein kinase 10, sequence (P53779 whole entry): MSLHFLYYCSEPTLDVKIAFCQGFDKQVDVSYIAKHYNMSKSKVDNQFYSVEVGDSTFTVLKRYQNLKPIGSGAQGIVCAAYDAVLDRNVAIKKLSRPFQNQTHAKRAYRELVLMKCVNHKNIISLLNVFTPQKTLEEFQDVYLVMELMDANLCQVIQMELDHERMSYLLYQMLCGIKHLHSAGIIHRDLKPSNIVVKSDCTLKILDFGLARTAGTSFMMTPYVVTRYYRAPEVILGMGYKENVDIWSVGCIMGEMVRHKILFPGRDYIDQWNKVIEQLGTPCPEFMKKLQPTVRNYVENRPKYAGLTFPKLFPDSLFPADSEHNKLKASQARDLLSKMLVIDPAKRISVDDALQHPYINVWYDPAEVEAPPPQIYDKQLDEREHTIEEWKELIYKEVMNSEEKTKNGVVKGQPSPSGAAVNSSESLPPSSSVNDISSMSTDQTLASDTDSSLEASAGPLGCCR
CAAX prenyl protease 1, sequence (P47154 whole entry): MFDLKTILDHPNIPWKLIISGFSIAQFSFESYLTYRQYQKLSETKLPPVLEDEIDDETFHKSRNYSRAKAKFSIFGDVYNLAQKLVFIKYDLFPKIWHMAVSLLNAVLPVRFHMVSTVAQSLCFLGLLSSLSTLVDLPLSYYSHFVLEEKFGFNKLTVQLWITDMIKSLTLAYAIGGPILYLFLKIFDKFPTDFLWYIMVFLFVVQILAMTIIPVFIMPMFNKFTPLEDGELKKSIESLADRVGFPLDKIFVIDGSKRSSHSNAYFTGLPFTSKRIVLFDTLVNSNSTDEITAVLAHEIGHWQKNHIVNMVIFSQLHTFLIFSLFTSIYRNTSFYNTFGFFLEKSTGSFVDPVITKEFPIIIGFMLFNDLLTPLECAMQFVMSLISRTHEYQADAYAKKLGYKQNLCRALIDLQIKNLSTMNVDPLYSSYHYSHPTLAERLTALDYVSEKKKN

Structure (SMILES)	AC50 (CAAX prenyl protease 1)	AC50 (CAAX prenyl protease 2)	IC50 [1]	IC50 [2]	IC50 [3]	EC50 [4]	EC50 [5]	EC50 [6]	EC50 [7]	EC50 [8]
COC(=O)c1ccccc1NC(=O)NCc1cccnc1	3.47 µM (active)	26.1 µM (active)	> 93.1 µM (not active)	–	–	–	–	–	–	–
COc1ccc(N2CCN(Cc3nc(N)nc(Nc4ccc(C)c(Cl)c4)n3)CC2)cc1	–	–	–	4.31 µM (active)	3.03 µM (active)	28.9 µM (active)	13.7 µM (active)	9.58 µM (active)	24 µM (active)	26.8 µM (active)
